# Values quoted from earlier work in US8524769B2, “Process for producing a fraction enriched up to 100% of 3-O-acetyl-11-keto-beta-boswellic acid from an extract containing a mixture of boswellic acids” (Laila Impex, priority 2002, dated 2013).
# Test system: 5-lipoxygenase (5-LO)
# Settings: compared among all six boswellic acids; Sailer et al., British J. Pharmacology 117, 615-618, 1996
# 5-lipoxygenase (5-LO), sequence (P09917 whole entry, species assumed): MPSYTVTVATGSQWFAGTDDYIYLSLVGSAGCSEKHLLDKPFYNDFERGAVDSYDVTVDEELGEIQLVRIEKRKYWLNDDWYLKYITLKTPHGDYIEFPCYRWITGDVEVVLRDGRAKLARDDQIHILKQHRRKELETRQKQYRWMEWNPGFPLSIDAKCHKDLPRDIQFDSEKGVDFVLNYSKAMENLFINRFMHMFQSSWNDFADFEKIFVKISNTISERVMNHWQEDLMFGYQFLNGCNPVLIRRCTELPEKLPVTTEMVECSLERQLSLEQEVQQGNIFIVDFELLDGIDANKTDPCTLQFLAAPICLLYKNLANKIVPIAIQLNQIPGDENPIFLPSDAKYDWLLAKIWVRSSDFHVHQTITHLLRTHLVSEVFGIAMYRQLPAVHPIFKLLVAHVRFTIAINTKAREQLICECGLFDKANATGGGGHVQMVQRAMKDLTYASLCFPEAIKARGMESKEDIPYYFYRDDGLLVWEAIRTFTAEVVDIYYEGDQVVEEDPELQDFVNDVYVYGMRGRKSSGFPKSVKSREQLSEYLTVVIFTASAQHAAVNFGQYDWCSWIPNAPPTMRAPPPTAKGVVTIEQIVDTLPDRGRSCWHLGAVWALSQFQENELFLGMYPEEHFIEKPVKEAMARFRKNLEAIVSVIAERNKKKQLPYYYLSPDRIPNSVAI
substance,measurement,value
3-O-acetyl-11-keto-β-boswellic acid [AKBA],inhibitory activity on 5-lipoxygenase,most pronounced inhibitory activity
